Experiment: mn = molality of the nth substance listed, in mol/kg
Conditions: for surface tension liquid-gas: Maximal bubble pressure; for mass density / electrical conductivity: 100 kPa, Liquid; for mass density: Vibrating tube method; for electrical conductivity: Frequency=0.003 MHz, Alternating current cell with electrodes

CCCCCCCCCCCCCCCCOCCOCCOCCOCCOCCOCCOCCOCCOCCOCCOCCOCCOCCOCCOCCOCCOCCOCCOCCOCCO + O
Conditions | mass density [kg/m3] | surface tension liquid-gas [mN/m]
298.15 K, m1 = 0.0005 | 995.7 | –
298.15 K, m1 = 0.00199 | – | 68.7
298.15 K, m1 = 0.00251 | – | 66
298.15 K, m1 = 0.00316 | – | 64.2
298.15 K, m1 = 0.00398 | – | 63.2
298.15 K, m1 = 0.00501 | – | 61.3
298.15 K, m1 = 0.00708 | – | 59.4
298.15 K, m1 = 0.01 | – | 56.9
298.15 K, m1 = 0.01413 | – | 55.3
298.15 K, m1 = 0.02239 | – | 53.2
298.15 K, m1 = 0.02818 | – | 52.4
298.15 K, m1 = 0.03162 | – | 52.1
298.15 K, m1 = 0.03981 | – | 52.1
298.15 K, m1 = 0.05 | 997.07 | –
298.15 K, m1 = 0.05012 | – | 51.9
298.15 K, m1 = 0.0631 | – | 51.9
303.15 K, m1 = 0.0005 | 995.58 | –
303.15 K, m1 = 0.002 | – | 65.5
303.15 K, m1 = 0.00251 | – | 64
303.15 K, m1 = 0.00316 | – | 62.5
303.15 K, m1 = 0.00398 | – | 61
303.15 K, m1 = 0.00501 | – | 59.5
303.15 K, m1 = 0.00708 | – | 57.5
303.15 K, m1 = 0.01 | – | 55.8
303.15 K, m1 = 0.01413 | – | 53
303.15 K, m1 = 0.02239 | – | 51
303.15 K, m1 = 0.02818 | – | 50.8
303.15 K, m1 = 0.03162 | – | 50.7
303.15 K, m1 = 0.03981 | – | 50.7
303.15 K, m1 = 0.05 | 996.92 | –
303.15 K, m1 = 0.05012 | – | 50.6
303.15 K, m1 = 0.0631 | – | 50.6
308.15 K, m1 = 0.0005 | 995.44 | –
308.15 K, m1 = 0.002 | – | 63.1
308.15 K, m1 = 0.00251 | – | 62.4
308.15 K, m1 = 0.00316 | – | 60.2
308.15 K, m1 = 0.00398 | – | 59.1
308.15 K, m1 = 0.00501 | – | 57.1
308.15 K, m1 = 0.00708 | – | 55.3
308.15 K, m1 = 0.01 | – | 53.6
308.15 K, m1 = 0.01429 | – | 51.2
308.15 K, m1 = 0.02239 | – | 49.4
308.15 K, m1 = 0.02818 | – | 48.8
308.15 K, m1 = 0.03162 | – | 48.3
308.15 K, m1 = 0.03981 | – | 48.3
308.15 K, m1 = 0.05 | 996.78 | –
308.15 K, m1 = 0.05012 | – | 48.3
308.15 K, m1 = 0.0631 | – | 48.3
313.15 K, m1 = 0.0005 | 995.3 | –
313.15 K, m1 = 0.002 | – | 61.8
313.15 K, m1 = 0.00251 | – | 60.2
313.15 K, m1 = 0.00316 | – | 58.3
313.15 K, m1 = 0.00398 | – | 57.1
313.15 K, m1 = 0.00501 | – | 55.5
313.15 K, m1 = 0.00708 | – | 53.6
313.15 K, m1 = 0.01 | – | 51.7
313.15 K, m1 = 0.01429 | – | 50
313.15 K, m1 = 0.02239 | – | 47.7
313.15 K, m1 = 0.02818 | – | 46.8
313.15 K, m1 = 0.03162 | – | 46.5
313.15 K, m1 = 0.03981 | – | 46.4
313.15 K, m1 = 0.05 | 996.64 | –
313.15 K, m1 = 0.05012 | – | 46.3
313.15 K, m1 = 0.0631 | – | 46.3

CCCCCCCCCCCCCCCC[n+]1ccccc1.[Br-] [1-hexadecylpyridinium bromide] + O
Conditions | electrical conductivity, 298.15 K [S/m] | electrical conductivity, 303.15 K [S/m] | electrical conductivity, 308.15 K [S/m] | electrical conductivity, 313.15 K [S/m] | mass density, 298.15 K [kg/m3] | mass density, 303.15 K [kg/m3] | mass density, 308.15 K [kg/m3] | mass density, 313.15 K [kg/m3]
m1 = 0.0005 | – | – | – | – | 996.54 | 995.89 | 995.18 | 994.58
m1 = 0.001 | 0.000196 | 0.000252 | 0.000326 | 0.000401 | – | – | – | –
m1 = 0.0015 | 0.000304 | 0.000359 | 0.000436 | 0.000536 | – | – | – | –
m1 = 0.0025 | 0.00044 | 0.000505 | 0.000566 | 0.000684 | – | – | – | –
m1 = 0.004 | 0.000742 | 0.000807 | 0.000884 | 0.00101 | – | – | – | –
m1 = 0.005 | 0.00105 | 0.0011 | 0.00109 | 0.00135 | – | – | – | –
m1 = 0.007 | 0.00135 | 0.00141 | 0.00148 | 0.00156 | – | – | – | –
m1 = 0.009 | 0.00174 | 0.0018 | 0.00187 | 0.00202 | – | – | – | –
m1 = 0.01 | 0.00192 | 0.00201 | 0.00206 | 0.00236 | – | – | – | –
m1 = 0.013 | 0.00236 | 0.00241 | 0.00247 | 0.00259 | – | – | – | –
m1 = 0.015 | 0.00263 | 0.00271 | 0.00276 | 0.00298 | – | – | – | –
m1 = 0.018 | 0.00313 | 0.0031 | 0.00318 | 0.00336 | – | – | – | –
m1 = 0.02 | 0.00345 | 0.0035 | 0.00349 | 0.00384 | – | – | – | –
m1 = 0.024 | 0.00403 | 0.00411 | 0.00416 | 0.00469 | – | – | – | –
m1 = 0.027 | 0.00443 | 0.00451 | 0.00458 | 0.00497 | – | – | – | –
m1 = 0.05 | – | – | – | – | 998.25 | 997.33 | 996.34 | 995.46

CCCCCCCCCCCCOS(=O)(=O)[O-].[Na+] [sodium dodecyl sulfate] + O
Conditions | electrical conductivity, 298.15 K [S/m] | electrical conductivity, 303.15 K [S/m] | electrical conductivity, 308.15 K [S/m] | electrical conductivity, 313.15 K [S/m] | mass density, 298.15 K [kg/m3] | mass density, 303.15 K [kg/m3] | mass density, 308.15 K [kg/m3] | mass density, 313.15 K [kg/m3]
m1 = 0.0005 | – | – | – | – | 994.78 | 994.12 | 993.69 | 993.15
m1 = 0.00086 | 0.000225 | 0.000289 | 0.000342 | 0.000403 | – | – | – | –
m1 = 0.00135 | 0.000346 | 0.000386 | 0.000457 | 0.000515 | – | – | – | –
m1 = 0.00161 | 0.000432 | 0.000497 | 0.000568 | 0.00063 | – | – | – | –
m1 = 0.00172 | 0.000542 | 0.000598 | 0.000663 | 0.000713 | – | – | – | –
m1 = 0.0023 | 0.000768 | 0.000813 | 0.00087 | 0.000946 | – | – | – | –
m1 = 0.00342 | 0.000984 | 0.00105 | 0.00113 | 0.0012 | – | – | – | –
m1 = 0.005 | 0.00144 | 0.0015 | 0.00159 | 0.00169 | – | – | – | –
m1 = 0.00681 | 0.00177 | 0.00193 | 0.00189 | 0.00207 | – | – | – | –
m1 = 0.0075 | 0.00203 | 0.00211 | 0.0022 | 0.00233 | – | – | – | –
m1 = 0.0108 | 0.00264 | 0.00269 | 0.00279 | 0.00295 | – | – | – | –
m1 = 0.01283 | 0.00293 | 0.00299 | 0.00305 | 0.00322 | – | – | – | –
m1 = 0.01582 | 0.00335 | 0.0034 | 0.00353 | 0.00373 | – | – | – | –
m1 = 0.01974 | 0.00392 | 0.00398 | 0.00412 | 0.00432 | – | – | – | –
m1 = 0.02351 | 0.00445 | 0.0044 | 0.00455 | 0.00468 | – | – | – | –
m1 = 0.02665 | 0.00483 | 0.00487 | 0.00487 | 0.00507 | – | – | – | –
m1 = 0.05 | – | – | – | – | 994.74 | 994.19 | 993.64 | 993.11

Source: the NIST ThermoML archive (doi:10.1021/je400667c)
